Data published in the kinase profiling compilation of Christmann-Franck et al. (2016).

Tests used:
Assay in all cases: KINOMEscan competition binding
Conditions in all cases: compound 10.0 µM
[1] = test system: ABL1 (human), P00519 [E255K]
[2] = target: EGFR (human) (UniProt P00533)
[3] = target: MET (human) (UniProt P08581)
[4] = target: PIK3CA (human) (UniProt P42336)
[5] = test system: PIK3CA (human), P42336 [E545K]
[6] = target: PIK3CG (human) (UniProt P48736)
[7] = target: TIE1 (human) (UniProt P35590)
[8] = target: EPHB6 (human) (UniProt O15197)
[9] = target: ERBB3 (human) (UniProt P21860)
[10] = target: ERN1 (human) (UniProt O75460)
[11] = target: GRK1 (human) (UniProt Q15835)
[12] = target: GRK4 (human) (UniProt P32298)
[13] = target: HIPK2 (human) (UniProt Q9H2X6)
[14] = target: HIPK3 (human) (UniProt Q9H422)
[15] = target: HIPK4 (human) (UniProt Q8NE63)
[16] = target: HUNK (human) (UniProt P57058)
[17] = target: ICK (human) (UniProt Q9UPZ9)
[18] = target: IRAK1 (human) (UniProt P51617)
[19] = target: MAP3K1 (human) (UniProt Q13233)
[20] = target: MAP3K13 (human) (UniProt O43283)
[21] = target: MAP3K2 (human) (UniProt Q9Y2U5)
[22] = target: MATK (human) (UniProt P42679)
[23] = target: PI4KB (human) (UniProt Q9UBF8)
[24] = target: PIK3C2G (human) (UniProt O75747)
[25] = target: ROCK1 (human) (UniProt Q13464)
[26] = target: SIK3 (human) (UniProt Q9Y2K2)
[27] = target: STK39 (human) (UniProt Q9UEW8)
[28] = test system: PIK3CA (human), P42336 [E545A]
[29] = target: CDK4 CCND3 (human) (UniProt P11802+P30281)
[30] = target: CDKL1 (human) (UniProt Q00532)
[31] = target: CSNK1A1 (human) (UniProt P48729)
[32] = target: DSTYK (human) (UniProt Q6XUX3)
[33] = target: LRRK2 (human) (UniProt Q5S007)
[34] = target: NEK11 (human) (UniProt Q8NG66)
[35] = target: NEK3 (human) (UniProt P51956)
[36] = target: PIP5K1C (human) (UniProt O60331)
[37] = target: SNRK (human) (UniProt Q9NRH2)
[38] = target: TAOK2 (human) (UniProt Q9UL54)
[39] = target: VRK2 (human) (UniProt Q86Y07)

Sequence of SIK3 (human) (Q9Y2K2 whole entry, looked up): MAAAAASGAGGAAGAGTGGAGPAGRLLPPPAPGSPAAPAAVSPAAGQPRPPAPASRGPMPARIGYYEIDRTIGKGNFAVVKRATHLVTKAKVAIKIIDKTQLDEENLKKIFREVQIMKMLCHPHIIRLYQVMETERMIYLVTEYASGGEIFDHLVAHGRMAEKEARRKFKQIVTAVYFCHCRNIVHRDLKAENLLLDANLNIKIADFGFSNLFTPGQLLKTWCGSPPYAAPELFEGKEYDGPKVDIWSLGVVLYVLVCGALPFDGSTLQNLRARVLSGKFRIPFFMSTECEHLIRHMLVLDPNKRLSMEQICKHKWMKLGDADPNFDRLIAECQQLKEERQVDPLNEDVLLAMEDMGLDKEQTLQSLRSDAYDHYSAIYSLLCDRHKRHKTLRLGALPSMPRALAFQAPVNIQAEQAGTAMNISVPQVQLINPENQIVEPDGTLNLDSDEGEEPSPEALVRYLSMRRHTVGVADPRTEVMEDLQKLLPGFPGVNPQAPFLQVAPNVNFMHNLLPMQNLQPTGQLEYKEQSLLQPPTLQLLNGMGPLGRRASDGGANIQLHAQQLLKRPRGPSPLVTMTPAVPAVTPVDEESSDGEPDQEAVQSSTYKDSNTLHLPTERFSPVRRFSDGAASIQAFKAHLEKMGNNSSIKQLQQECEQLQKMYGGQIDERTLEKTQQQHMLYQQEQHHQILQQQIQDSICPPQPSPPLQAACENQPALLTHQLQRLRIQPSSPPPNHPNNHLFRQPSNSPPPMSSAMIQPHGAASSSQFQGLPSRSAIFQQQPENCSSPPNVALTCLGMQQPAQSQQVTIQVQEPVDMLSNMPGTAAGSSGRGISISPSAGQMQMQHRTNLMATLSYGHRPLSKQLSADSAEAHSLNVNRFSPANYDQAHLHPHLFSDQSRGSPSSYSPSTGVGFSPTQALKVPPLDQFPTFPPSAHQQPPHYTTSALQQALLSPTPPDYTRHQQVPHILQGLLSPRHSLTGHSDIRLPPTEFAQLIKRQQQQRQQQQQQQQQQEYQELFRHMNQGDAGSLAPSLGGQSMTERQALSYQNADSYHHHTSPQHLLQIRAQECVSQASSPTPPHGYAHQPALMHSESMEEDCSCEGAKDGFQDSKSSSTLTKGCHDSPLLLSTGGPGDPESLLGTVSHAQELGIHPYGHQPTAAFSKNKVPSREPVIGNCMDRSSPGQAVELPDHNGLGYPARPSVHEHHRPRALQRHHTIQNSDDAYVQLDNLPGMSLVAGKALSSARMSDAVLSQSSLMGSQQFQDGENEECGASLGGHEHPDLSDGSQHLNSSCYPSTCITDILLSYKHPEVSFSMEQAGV
Sequence of PIK3CA (human), P42336 [E545K] (P42336 whole entry E545K, looked up): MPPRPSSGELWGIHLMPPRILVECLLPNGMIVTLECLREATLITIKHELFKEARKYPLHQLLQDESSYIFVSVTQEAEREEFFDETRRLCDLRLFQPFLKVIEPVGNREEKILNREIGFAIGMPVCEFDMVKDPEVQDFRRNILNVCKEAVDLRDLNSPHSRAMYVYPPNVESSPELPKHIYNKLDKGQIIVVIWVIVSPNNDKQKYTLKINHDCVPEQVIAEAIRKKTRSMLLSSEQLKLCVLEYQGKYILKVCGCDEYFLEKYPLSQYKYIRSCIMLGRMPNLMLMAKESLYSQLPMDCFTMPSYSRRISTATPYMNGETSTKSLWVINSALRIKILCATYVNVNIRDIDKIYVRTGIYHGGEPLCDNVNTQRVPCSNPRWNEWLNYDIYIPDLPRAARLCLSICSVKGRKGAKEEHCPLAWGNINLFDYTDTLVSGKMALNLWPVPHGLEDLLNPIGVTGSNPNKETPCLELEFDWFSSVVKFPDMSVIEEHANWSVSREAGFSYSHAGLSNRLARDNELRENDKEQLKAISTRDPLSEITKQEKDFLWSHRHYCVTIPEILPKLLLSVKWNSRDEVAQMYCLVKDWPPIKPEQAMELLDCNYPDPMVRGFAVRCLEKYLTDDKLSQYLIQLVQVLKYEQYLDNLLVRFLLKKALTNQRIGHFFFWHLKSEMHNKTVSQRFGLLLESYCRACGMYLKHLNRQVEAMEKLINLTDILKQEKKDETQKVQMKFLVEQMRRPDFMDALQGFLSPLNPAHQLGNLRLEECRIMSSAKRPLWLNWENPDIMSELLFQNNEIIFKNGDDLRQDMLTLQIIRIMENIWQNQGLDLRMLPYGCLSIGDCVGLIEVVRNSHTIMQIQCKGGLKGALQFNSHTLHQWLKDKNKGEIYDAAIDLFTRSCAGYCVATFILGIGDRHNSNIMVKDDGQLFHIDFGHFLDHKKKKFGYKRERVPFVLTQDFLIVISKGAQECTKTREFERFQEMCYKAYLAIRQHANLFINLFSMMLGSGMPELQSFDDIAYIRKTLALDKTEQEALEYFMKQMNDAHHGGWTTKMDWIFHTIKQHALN
Sequence of TIE1 (human) (P35590 whole entry, looked up): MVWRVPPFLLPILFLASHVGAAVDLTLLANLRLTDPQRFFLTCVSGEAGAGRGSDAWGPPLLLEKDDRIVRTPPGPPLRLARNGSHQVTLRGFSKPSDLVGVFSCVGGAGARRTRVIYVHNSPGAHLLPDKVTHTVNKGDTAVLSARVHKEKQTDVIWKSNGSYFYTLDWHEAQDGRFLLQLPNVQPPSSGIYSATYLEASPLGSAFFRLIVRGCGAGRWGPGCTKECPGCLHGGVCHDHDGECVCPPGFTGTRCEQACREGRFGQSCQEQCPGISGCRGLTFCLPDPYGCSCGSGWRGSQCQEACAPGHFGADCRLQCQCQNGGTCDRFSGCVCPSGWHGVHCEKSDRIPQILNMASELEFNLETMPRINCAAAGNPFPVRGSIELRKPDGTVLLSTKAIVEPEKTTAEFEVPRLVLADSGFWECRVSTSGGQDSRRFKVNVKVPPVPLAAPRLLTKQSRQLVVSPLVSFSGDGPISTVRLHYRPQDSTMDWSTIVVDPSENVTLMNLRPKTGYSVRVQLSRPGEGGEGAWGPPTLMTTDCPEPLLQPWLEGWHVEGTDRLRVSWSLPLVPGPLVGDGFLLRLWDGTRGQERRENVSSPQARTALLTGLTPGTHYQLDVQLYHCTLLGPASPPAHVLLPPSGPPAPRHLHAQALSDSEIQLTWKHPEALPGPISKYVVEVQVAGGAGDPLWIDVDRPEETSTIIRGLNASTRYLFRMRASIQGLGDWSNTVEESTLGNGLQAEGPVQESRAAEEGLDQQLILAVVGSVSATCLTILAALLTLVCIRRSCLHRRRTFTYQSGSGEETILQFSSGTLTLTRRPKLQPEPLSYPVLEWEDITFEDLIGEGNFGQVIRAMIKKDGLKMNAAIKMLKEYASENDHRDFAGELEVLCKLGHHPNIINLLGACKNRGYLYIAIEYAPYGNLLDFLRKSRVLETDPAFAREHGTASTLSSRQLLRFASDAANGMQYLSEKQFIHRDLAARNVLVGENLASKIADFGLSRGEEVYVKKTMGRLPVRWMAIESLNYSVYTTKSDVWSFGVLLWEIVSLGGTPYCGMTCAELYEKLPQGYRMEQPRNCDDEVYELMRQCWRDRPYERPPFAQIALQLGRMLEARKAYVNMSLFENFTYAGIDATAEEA
Sequence of ICK (human) (Q9UPZ9 whole entry, looked up): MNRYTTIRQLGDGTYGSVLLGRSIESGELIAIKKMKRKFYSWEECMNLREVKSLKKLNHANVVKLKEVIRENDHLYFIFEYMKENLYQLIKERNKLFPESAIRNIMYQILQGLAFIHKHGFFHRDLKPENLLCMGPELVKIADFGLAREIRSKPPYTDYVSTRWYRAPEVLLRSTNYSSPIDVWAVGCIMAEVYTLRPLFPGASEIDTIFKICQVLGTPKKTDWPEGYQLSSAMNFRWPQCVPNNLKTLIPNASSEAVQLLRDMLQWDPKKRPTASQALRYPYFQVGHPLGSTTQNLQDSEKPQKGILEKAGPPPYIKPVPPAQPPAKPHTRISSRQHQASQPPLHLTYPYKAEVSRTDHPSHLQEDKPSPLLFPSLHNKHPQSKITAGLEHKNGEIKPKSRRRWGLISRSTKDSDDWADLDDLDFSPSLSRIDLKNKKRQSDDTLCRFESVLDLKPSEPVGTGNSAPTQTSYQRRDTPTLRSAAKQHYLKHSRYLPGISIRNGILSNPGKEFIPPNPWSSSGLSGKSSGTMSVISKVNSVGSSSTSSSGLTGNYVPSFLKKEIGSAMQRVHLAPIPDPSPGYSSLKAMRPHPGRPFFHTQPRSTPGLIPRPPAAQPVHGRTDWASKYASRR
Sequence of PI4KB (human) (Q9UBF8 whole entry, looked up): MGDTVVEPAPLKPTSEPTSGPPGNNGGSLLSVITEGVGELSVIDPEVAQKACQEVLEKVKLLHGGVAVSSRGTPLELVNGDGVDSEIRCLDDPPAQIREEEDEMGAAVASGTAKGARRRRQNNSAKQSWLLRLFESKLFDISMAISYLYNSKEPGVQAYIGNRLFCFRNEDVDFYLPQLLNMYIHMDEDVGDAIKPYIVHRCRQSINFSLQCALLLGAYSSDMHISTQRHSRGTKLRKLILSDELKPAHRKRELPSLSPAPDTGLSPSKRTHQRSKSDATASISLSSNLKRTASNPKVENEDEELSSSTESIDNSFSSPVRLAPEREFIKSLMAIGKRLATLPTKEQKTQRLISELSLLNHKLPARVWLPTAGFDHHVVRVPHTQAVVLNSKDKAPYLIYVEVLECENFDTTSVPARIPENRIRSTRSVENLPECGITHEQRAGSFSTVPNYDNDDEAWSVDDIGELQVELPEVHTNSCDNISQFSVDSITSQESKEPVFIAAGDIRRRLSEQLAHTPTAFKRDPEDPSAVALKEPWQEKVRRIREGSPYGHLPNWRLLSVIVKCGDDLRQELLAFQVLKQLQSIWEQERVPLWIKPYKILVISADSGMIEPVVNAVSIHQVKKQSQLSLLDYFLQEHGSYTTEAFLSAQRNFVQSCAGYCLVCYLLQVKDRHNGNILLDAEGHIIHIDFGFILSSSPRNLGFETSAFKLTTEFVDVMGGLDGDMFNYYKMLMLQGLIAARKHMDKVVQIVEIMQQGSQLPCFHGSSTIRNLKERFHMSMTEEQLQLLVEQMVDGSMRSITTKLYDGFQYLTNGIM
Sequence of PIK3CA (human), P42336 [E545A] (P42336 whole entry E545A, looked up): as the sequence (P42336 whole entry E545K, looked up) above, with K545A counted along it
Sequence of PIK3CA (human) (P42336 whole entry, looked up): as the sequence (P42336 whole entry E545K, looked up) above, with K545E counted along it

SMILES	kinase still bound, per cent of control [1]	kinase still bound, per cent of control [2]	kinase still bound, per cent of control [3]	kinase still bound, per cent of control [4]	kinase still bound, per cent of control [5]	kinase still bound, per cent of control [6]	kinase still bound, per cent of control [7]	kinase still bound, per cent of control [8]	kinase still bound, per cent of control [9]	kinase still bound, per cent of control [10]	kinase still bound, per cent of control [11]	kinase still bound, per cent of control [12]	kinase still bound, per cent of control [13]	kinase still bound, per cent of control [15]	kinase still bound, per cent of control [16]	kinase still bound, per cent of control [17]	kinase still bound, per cent of control [18]	kinase still bound, per cent of control [19]	kinase still bound, per cent of control [20]	kinase still bound, per cent of control [22]	further results
C=CC(=O)Nc1cccc(Oc2nc(Nc3ccc(N4CCN(C)CC4)cc3OC)ncc2Cl)c1	100%	0.1%	20%	100%	100%	100%	100%														
COc1cc(C(=O)NC2CCN(C)CC2)ccc1Nc1ncc2c(n1)N(C1CCCC1)C(C)CC(=O)N2C (configuration not stated)	100%	100%	100%	100%	100%	100%	100%														
Cn1c(=O)n(-c2ccc(C(C)(C)C#N)cc2)c2c3cc(-c4cnc5ccccc5c4)ccc3ncc21	100%	100%		2.8%	3%	23%	100%	100%	100%	100%	100%	100%	100%	100%	100%	100%	100%	100%	100%	100%	kinase still bound, per cent of control [14]: 100%; kinase still bound, per cent of control [21]: 100%; kinase still bound, per cent of control [23]: 100%; kinase still bound, per cent of control [24]: 4.4%; kinase still bound, per cent of control [25]: 100%; kinase still bound, per cent of control [26]: 100%; kinase still bound, per cent of control [27]: 100%
CCOc1cc2ncc(C#N)c(Nc3ccc(OCc4ccccn4)c(Cl)c3)c2cc1NC(=O)/C=C/CN(C)C	100%		84%	86%		91%		83%	0.1%	80%	84%	68%	65%	42%	86%	100%	65%	96%	86%	71%	kinase still bound, per cent of control [29]: 78%; kinase still bound, per cent of control [30]: 100%; kinase still bound, per cent of control [31]: 100%; kinase still bound, per cent of control [32]: 69%; kinase still bound, per cent of control [33]: 99%; kinase still bound, per cent of control [34]: 64%; kinase still bound, per cent of control [35]: 41%; kinase still bound, per cent of control [23]: 100%; kinase still bound, per cent of control [24]: 100%; kinase still bound, per cent of control [28]: 100%; kinase still bound, per cent of control [36]: 100%; kinase still bound, per cent of control [25]: 100%; kinase still bound, per cent of control [26]: 73%; kinase still bound, per cent of control [37]: 51%; kinase still bound, per cent of control [27]: 84%; kinase still bound, per cent of control [38]: 92%; kinase still bound, per cent of control [39]: 67%
CC[C@@H]1C(=O)N(C)c2cnc(Nc3ccc(C(=O)NC4CCN(C)CC4)cc3OC)nc2N1C1CCCC1	100%			100%	100%	100%	100%														

Continued, in another order:

kinase still bound, per cent of control [1]	kinase still bound, per cent of control [2]	kinase still bound, per cent of control [3]	kinase still bound, per cent of control [4]	kinase still bound, per cent of control [5]	kinase still bound, per cent of control [6]	kinase still bound, per cent of control [7]	kinase still bound, per cent of control [8]	kinase still bound, per cent of control [9]	kinase still bound, per cent of control [10]	kinase still bound, per cent of control [11]	kinase still bound, per cent of control [12]	kinase still bound, per cent of control [13]	kinase still bound, per cent of control [15]	kinase still bound, per cent of control [16]	kinase still bound, per cent of control [17]	kinase still bound, per cent of control [18]	kinase still bound, per cent of control [19]	kinase still bound, per cent of control [20]	kinase still bound, per cent of control [22]	SMILES	further results
100%	100%	100%	100%	100%	100%	100%														Cc1ccc(C(=O)Nc2cccc(C(F)(F)F)c2)cc1Nc1cncc(C(N)=O)c1	
100%	100%	100%	100%	100%	100%	100%	100%	100%	100%	100%	100%	100%	100%	100%	100%	100%	100%	100%	100%	COc1cc(C(=O)NC2CCN(C)CC2)ccc1Nc1ncc2c(n1)N(C1CCCC1)CCC(=O)N2C(C)C	kinase still bound, per cent of control [14]: 100%; kinase still bound, per cent of control [21]: 100%; kinase still bound, per cent of control [23]: 100%; kinase still bound, per cent of control [24]: 100%; kinase still bound, per cent of control [28]: 100%; kinase still bound, per cent of control [25]: 100%; kinase still bound, per cent of control [26]: 100%; kinase still bound, per cent of control [27]: 100%
100%	100%	100%	100%	100%	100%	100%	100%	100%	100%	100%	100%	15%	14%	100%	2.2%	100%	100%	100%	100%	OCCCNc1cc(-c2ccnc(Nc3cccc(Cl)c3)n2)ccn1	kinase still bound, per cent of control [14]: 100%; kinase still bound, per cent of control [21]: 100%; kinase still bound, per cent of control [23]: 100%; kinase still bound, per cent of control [24]: 100%; kinase still bound, per cent of control [28]: 100%; kinase still bound, per cent of control [25]: 100%; kinase still bound, per cent of control [26]: 100%; kinase still bound, per cent of control [27]: 100%
